Experiment in all cases: Cell proliferation assay (CellTiter-Glo, intracellular ATP content)
Common to all, as to type: cell-based

For one test, the system named is DLD1 cells. The conditions noted are these: DLD-1, 144 h; inhibition of proliferation, human colon cancer cells, 6 days incubation. The source says:
(§1) The following method evaluates the inhibitory effect of the compounds of the present disclosure on the proliferation of DLD1, DLD1^BRCA2−/−, and MDA-MB-436 cells via IC50 by measuring the intracellular ATP content. The experimental method was briefly described as follows: • I. Experimental materials and instruments • 1. DLD1, human colon cancer cells (Cobioer, Nanjing, CBP60037) • 2. DLD1^BRCa2−/−, human BRCA2 gene knock-out colon cancer cells (Creative biogene, CSC-RT0015) • 3. MDA-MB-436, human breast cancer cells (ATCC, HTB-130) • 4. Fetal bovine serum (GIBCO, 10091-148) • 5. CellTite-Glo reagent (Promega, G^7573) • 6. 96-well cell culture plate (corning, 3903) • 7. Pancreatin (invitrogen, 25200-072) • 8. Microplate reader (BMG, PHERAsta) • 9. Cell counter (Countstar, Shanghai, IC1000) • II. Experimental procedures • DLD1 cells were cultured in an RPMI-1640 medium containing 10% FBS, and passaged 2-3 times a week in a passage ratio of 1:6 or 1:8. During passage, the cells were digested by pancreatin, transferred to a centrifuge tube, and centrifuged for 3 min at 1200 rpm. The supernatant was discarded, and a fresh medium was added to resuspend the cells. To a 96-well cell culture plate, 180 μL of the cell suspension was added at a density of 2.78×10^3 cells/mL. To peripheral wells of the 96-well plate, only 180 μL of complete medium was added.
(§2) The culture plate was incubated in an incubator for 24 h (37° C., 5% CO2).
(§3) The test samples were diluted to 2 mM in DMSO and serially 3-fold diluted to the 10th concentration. Blank and control wells were set. 5 μL of the serially diluted test compound solutions was added to 95 μL of fresh medium. 20 μL of the medium solution containing the compound described above was added to the plate. The plate was incubated in an incubator (37° C., 5% CO2) for 6 days. 90 μL of CellTiter-Glo reagent was added to each well of the 96-well cell culture plate. The plate was let stand for 5-10 min in the dark at room temperature. The chemiluminescence signals were read by a PHERAstar system, and the data were processed by GraphPad software.

The next test relates to MDA-MB-436 cells. The conditions noted are these: MDA-MB-436, 144 h; inhibition of proliferation, human breast cancer cells, 6 days incubation.
Source text: as §1
MDA-MB-436 cells were cultured in a Leibovitz's L-15 medium containing 10% FBS, 10 μg/mL insulin, and 16 µg/mL glutathione, and passaged 2-3 times a week in a passage ratio of 1:3 or 1:5. During passage, the cells were digested by pancreatin, transferred to a centrifuge tube, and centrifuged for 3 min at 1200 rpm. The supernatant was discarded, and a fresh medium was added to resuspend the cells. To a 96-well cell culture plate, 180 μL of the cell suspension was added at a density of 8.34×10^3 cells/mL. To peripheral wells of the 96-well plate, only 180 μL of complete medium was added.
as §2, §3

The test system of a further test is DLD1^BRCA2−/− cells. The conditions noted are these: 144 h; inhibition of proliferation, human BRCA2 gene knock-out colon cancer cells, 6 days incubation.
Source text: as §1
DLD1^BRCA2−/− cells were cultured in an RPMI-1640 medium containing 10% FBS, and passaged 2-3 times a week in a passage ratio of 1:6 or 1:8. During passage, the cells were digested by pancreatin, transferred to a centrifuge tube, and centrifuged for 3 min at 1200 rpm. The supernatant was discarded, and a fresh medium was added to resuspend the cells. To a 96-well cell culture plate, 180 μL of the cell suspension was added at a density of 8.34×10^3 cells/mL. To peripheral wells of the 96-well plate, only 180 μL of complete medium was added.
as §2, §3

Regarding `CCc1cc2ncc(CN3CCN4c5ccc(C(=O)NC)nc5OC[C@H]4C3)cc2[nH]c1=O` [Example 2, (R)-3-((7-Ethyl-6-oxo-5,6-dihydro-1,5-naphthyridin-3-yl)methyl)-N-methyl-1,2,3,4,4a,5-hexahydropyrazino[1,2-d]pyrido[2,3-b][1,4]oxazine-8-carboxamide], the IC50 in the test with DLD1 cells was above 250 nM; with MDA-MB-436 cells, 1 nM; in the test on DLD1^BRCA2−/− cells, 2.5 nM.

Turning to `CCc1cc2ncc(CN3CCN4c5ccc(C(=O)NC)nc5N(C)CC4C3)cc2[nH]c1=O` (racemic) [Example 7, (±)-3-((7-Ethyl-6-oxo-5,6-dihydro-1,5-naphthyridin-3-yl)methyl)-N,6-dimethyl-2,3,4,4a,5,6-hexahydro-1H-pyrazino[1,2-a]pyrido[2,3-e]pyrazine-8-carboxamide], the IC50 in the test on DLD1 cells is above 1000 nM; with MDA-MB-436 cells, 18.7 nM.

As to `CCc1cc2ncc(CN3CCN4c5ccc(C(=O)NC)nc5NCC4C3)cc2[nH]c1=O` (racemic) [Example 6, (±)-3-((7-Ethyl-6-oxo-5,6-dihydro-1,5-naphthyridin-3-yl)methyl)-N-methyl-2,3,4,4a,5,6-hexahydro-1H-pyrazino[1,2-a]pyrido[2,3-e]pyrazine-8-carboxamide], the IC50 in the test with DLD1 cells was above 1000 nM; in the test on MDA-MB-436 cells, 41.8 nM.

Consider `CCc1cc2ncc(CN3CCN4c5ccc(C(=O)NC)nc5OCC4C3)cc2[nH]c1=O` (racemic) [Example 1, (±)-3-((7-Ethyl-6-oxo-5,6-dihydro-1,5-naphthyridin-3-yl)methyl)-N-methyl-1,2,3,4,4a,5-hexahydropyrazino[1,2-d]pyrido[2,3-b][1,4]oxazine-8-carboxamide], for which the IC50 in the test with DLD1 cells was above 1000 nM; in the test with MDA-MB-436 cells, 5.8 nM; in the test on DLD1^BRCA2−/− cells, 7.9 nM.

Regarding `CCc1cc2ncc(CN3CCN4c5ccc(C(=O)NC)nc5COCC4C3)cc2[nH]c1=O` (racemic) [Example 3, (±)-3-((7-Ethyl-6-oxo-5,6-dihydro-1,5-naphthyridin-3-yl)methyl)-N-methyl-1,2,3,4,4a,5-hexahydro-7H-pyrazino[2,1-c]pyrido[3,2-e][1,4]oxazepine-9-carboxamide], the IC50 is above 250 nM in the test on DLD1 cells, 1.1 nM in the test on MDA-MB-436 cells and 5.8 nM with DLD1^BRCA2−/− cells.

For the compound `CCc1cc2ncc(CN3CCN4c5ccc(C(=O)NC)nc5COC[C@H]4C3)cc2[nH]c1=O` [Example 8, (R)-3-((7-Ethyl-6-oxo-5,6-dihydro-1,5-naphthyridin-3-yl)methyl)-N-methyl-1,2,3,4,4a,5-hexahydro-7H-pyrazino[2,1-c]pyrido[3,2-e][1,4]oxazepine-9-carboxamide], the results for the IC50 with DLD1 cells, with MDA-MB-436 cells and with DLD1^BRCA2−/− cells were above 1000 nM, 1.2 nM and 7.84 nM, respectively.

These data come from patent publication US20240287094A1, “NITROGEN-CONTAINING HETEROCYCLIC COMPOUND, PREPARATION METHOD THEREFOR, AND APPLICATION THEREOF IN MEDICINES” (Jiangsu Hengrui Pharmaceuticals Co., Ltd., priority 2021, published 2024).
